Results reported in US20250352590A1, “Functional postbiotic composition for homeostatic vaginal care” (Seed Health Inc., priority 2024, published 2025).

Columns and labels:
[1] = test system: EpiVaginal (VEC-100) 3-D tissues; experiment: Barrier integrity by transepithelial electrical resistance (TEER) in EpiVaginal tissues; format: cell-based; settings: 24 hr exposure; for TEER avg. (% of VC): tissues in triplicate, normalized to average TEER of vehicle control VC
Experimental: (§1) EpiVaginal (VEC-100) 3-D tissues, produced by MatTek Corporation, were used to evaluate eight test conditions plus a positive control known to have negative effects on tissue viability and barrier function (nonoxynol-9); the conditions tested are given in Table 3 below. Barrier integrity was measured at baseline, and tissues were treated in triplicate with test articles for 24 hours. Three tissues were left untreated to serve as negative control (NC); three tissues were treated with 4% nonoxynol-9 to serve as positive control (PC); and three tissues were dosed with media to serve as vehicle control (VC). At the end of 24 hr exposure to the test articles, barrier integrity was measured using transepithelial electrical resistance (TEER) and two tissues were used to assess tissue viability with the MTT assay. From each treatment group, one tissue was fixed in 10% formalin and processed for H&E staining for histological analysis.
Throughout this Example and Example 8 below, “VS-01” refers to a consortium of three Lactobacillus crispatus strains: LUCA011 (ATCC Accession Deposit No. PTA-127214) at a concentration of 3.70·10^10 CFU/g, LUCA009 (ATCC Accession Deposit No. PTA-127213) at a concentration of 8.60·10^9 CFU/g, and LUCA103 (ATCC Accession Deposit No. PTA-127218) at a concentration of 2.50·10^10 CFU/g. A stock of 10^6 CFU/mL of the combined strains was used for testing. A comparator strain, L. crispatus ATCC 33197, was sourced from the American Type Culture Collection, and it was determined by bioinformatic analysis that the genome of this strain had between 99.0% and 99.2% average nucleotide identity (ANI) with each of the three VS-01 strains.
The concentration of VS-01 most relevant to in vivo exposure in the VEC-100 model (10^6 CFU/mL) was determined using two different approaches: (1) Comparison of the exposure per unit area of vaginal surface area between VS-01 in vivo and VS-01 in the VEC-100 model. As known from the literature, the average surface area of the human vagina ranges from 65.73 to 107.07 cm^2 with a mean of 87.46 cm^2 and a standard deviation of 7.80 cm^2. If an 850 mg tablet as described in Example 3 instantaneously dissolved, the estimated coverage would be 9.7 mg/cm^2 (850 mg/87.46 cm^2). This most closely corresponds to a 1:100 dilution of the tablet and can be considered an upper bound, given that the tablet dissolves slowly over a 24-hour period. (2)
Comparison of the ratio of L. crispatus cells to vaginal epithelial cells in vivo and in the VEC-100 model. […] The Mattek model contains between about 350,000 and about 500,000 cells at a depth of three to five layers. If 100,000 epithelial cells are exposed at the surface, exposure to 10^6 bacterial cells produces a reasonable estimate of a 10:1 bacterial cell/epithelial cell ratio.
An estimate of the concentration of D-lactate most relevant to in vivo exposure was obtained considering tablet dissolution kinetics. Tablets as described in Example 3 are slow-release formulations, dissolving over the course of […]. The volume of cervicovaginal fluid (CVF) present in the vagina is variable, ranging from about 1 mL to about 4 mL, with a discharge rate of about 2 mL to about 5 mL over 24 hours; thus, the dissolution rate of a tablet as described in Example 3 would be about 71 mg/hour. D-lactate concentrations of tablets as described in Example 3 range from about 34 mg/tablet to about 44 mg/tablet. Estimating that 8.4% of an 850 mg tablet dissolves per hour (71 mg/hour divided by 850 mg/tablet) gives an estimated in vivo D-lactate concentration range of 31.7 mM to 40.44 mM D-lactate. Therefore, testing 10 mM and 100 mM D-lactate in this Example covers the physiological range of estimated exposure given the expected variability in the exact concentration of D-lactate per tablet. […]

[2] = test system: EpiVaginal (VEC-100) 3-D tissues; experiment: Tissue viability by MTT assay in EpiVaginal tissues; format: cell-based; settings: 24 hr exposure
Experimental: as §1

Compound | Barrier integrity / TEER, result in words [1] | TEER avg. (% of VC) [1] | TEER vs NC ([1]; relative to untreated negative control NC) [%] | TEER vs VC ([1]; relative to vehicle control VC) [%] | Cytotoxicity / tissue viability (MTT), result in words [2]
nonoxynol-9 [PC] | barrier disruption | 0.6 % of VC | 0.2 | 0.6 | severe cytotoxicity
C[C@@H](O)C(=O)O [TA7, D-lactate] |  | 114.8 % of VC |  |  | 
C[C@@H](O)C(=O)O [TA6, D-lactate] |  | 128.4 % of VC |  |  | 
C[C@@H](O)C(=O)O [D-lactate] | did not result in significant improvements in TEER over VC |  |  |  | 
